Assay results as given in patent US9725430B2, “Use of small molecule inhibitors targeting EYA tyrosine phosphatase” (Children's Hospital Medical Center, priority 2013, dated 2017).
pIC50: −log10 of the molar value.

Key:
EYA3 = EYA3 (Homo sapiens (Human), UniProt Q99504); assay: pNPP assay, full-length human recombinant EYA3; assay type: biochemical
From the text: The catalytic domain of mouse Eya3 (“ED”, comprising residues 223-510 of Eya3) was purified as described by Rayapureddi, J. P. et al. (FEBS Lett 580, 3853-3859 (2006), incorporated by reference in its entirety). For full-length Eya3 (“hEYA3”), human Eya3 isoform 2 (representing the major species identified in human cell lines by mass spectrometry, expressed as residues 127-573 of NM_001990, isoform 1) was sub-cloned into pDEST565 to express a poly-histidine-Glutathione-S-transferase (His-GST) tagged fusion protein with a TVMV protease site. The protein was purified by glutathione-S-transferase affinity chromatography followed by TVMV cleavage, Ni-NTA chromatography, and finally size exclusion chromatography. […]
The compounds were then tested using full-length human recombinant, purified EYA3 and pNPP as a substrate. Compounds were dissolved in DMSO and diluted as needed. […] Reactions were incubated at 30° C. for 30 minutes and quenched with 100 mM EDTA pH 10. IC50 values were then calculated directly from regression curves using PRISM software. All reported values are the mean of two independent experiments.

MCF10A(EYA2) cells = assay: Transwell migration of MCF10A-EYA2 cells; assay type: cell-based; conditions: 7.5 μM
From the text: The tyrosine phosphatase activity of Eya3 and Eya2 promotes single cell motility in breast cancer cells (Pandey, R. N. et al. Oncogene (2010) 29:3715-3722, incorporated by reference in its entirety). EYA2 is over-expressed in breast cancers and is associated with increased metastasis and a poorer outcome (Farabaugh, et al. Oncogene (2011) 259). […] Overexpression of EYA2, but not the tyrosine-phosphatase dead mutant, promoted cell motility (FIG. 2a). […] This effect was dose-dependent (FIG. 2d) and compound (1a) was able to reduce cell motility by over 50% at the lowest concentration (1 μM) tested.
In order to determine whether EYA3 knock down would affect cell migration, a modified Boyden chamber assay was used to measure HUVEC migration. Briefly, human umbilical vein endothelial cells (HUVECs) were purchased from Lonza (Walkersville, Md.) and maintained in the endothelial cell growth medium (PromoCell, Hleidelberg, Germany), under a 5% CO2 atmosphere. MCF10A cells from ATCC were stably transfected with either pcDNA 3.2N5-DEST (vector control), V5-EYA2 or V5-EYA2(D250N). Transwell migration experiments were performed as previously described (Pandey, R. N. et al. Oncogene 29, 3715-3722, (2010)).

HUVECs = assay: HUVEC cell viability assay (WST-8); assay type: cell-based, human; conditions: 3 days of exposure
Protocol: Additionally, a cell viability assay was conducted over 3 days of exposure to test compounds 1, 1a and 1g in order to assess both the possibility of immediate cellular toxicity as well as any effect on cell proliferation. HUVECs were seeded and equilibrated for 24 hours before addition of the test compounds. Cellular metabolic activity was measured at defined time-points using the tetrazolium dye WST-8 to quantify NAD(P)H-dependent cellular oxidoreductase enzyme activity.

mouse aortic rings = assay: Aortic ring sprouting assay; assay type: cell-based; conditions: 5 μM, 10 days
Protocol: Additionally, the effect of compounds 1d, 1f, 1h, 1i, 1g, 2 and 2a on cell proliferation, migration, tube formation, micro-vessel branching, and perivascular recruitment using an aortic ring sprouting assay. When slices of mouse aorta are cultured in collagen gels there is typically a lag phase for the first 4 days followed by linear sprouting of endothelial cells. By day 6, branching is observed. All the test compounds were initially assayed at 7.5 μM and the number of branch-points counted. When there was a severe effect (no visible sprouting), or when there was no apparent effect, other doses were tested to establish a dose-dependence. All of the compounds assayed were able to attenuate aortic ring sprouting. There was a strong reduction in initial sprouting and some attenuation of branching. With the exception of 2a, in all cases where there was sprouting, the length of sprouts was shorter than in the controls.
Endothelial cell migration can also be studied […] using the aortic ring assay in which sprouting angiogenesis is monitored by the formation of vascular sprouts outside the wall of mouse aortic rings incubated in collagen matrix and stimulated by VEGF (Gerhardt, H., et al. EXS, 3-15 (2005), hereby incorporated by reference in its entirety). Briefly, mice were obtained from the Cincinnati Children's veterinary service and handled according to the institutional animal care and use protocol. […] Mice were 4 to 6 weeks old female C57BL16, and aortic ring explants were cultured at 37° C. in a humidified incubator under a 5% CO2 atmosphere.
Each inhibitor was serially diluted (between 0.25 mM and 7.5 mM) to stocks of 1000× the working concentrations in sterile 100% DMSO in order to achieve an equal final concentration of DMSO (0.1% v/v) in all culture conditions. For the experiments, the compounds were diluted in EBM containing 2.5% FBS, penicillin/streptomycin and 20 ng/ml VEGF165 (R&D Systems, Minneapolis, Minn.). Each compound was applied from the first day of culture over a 10-day period with medium change every two days. In all experiments, the vehicle (DMSO, 0.1%) was used as control. The sprouting density was derived from counting the number of branches per ring, and the extent of angiogenic sprouting was estimated by measuring the total surface area covered by the vessels as illustrated in FIG. 7.

[1] = test system: developing zebrafish vasculature; assay: Zebrafish model of angiogenesis; assay type: in vivo; conditions: exposure from 5.25 hpf, analysis at 24 hpf; compound 1 at 0.25 μM
Protocol: Embryos (FLK1-GFP trangenic) were maintained in fish water until the 50% epiboly stage (5.25 hpf) and were transferred into wells of 24-well plate containing the inhibitors in fish water. The analysis for vascular defects was performed after the 24 hpf stage, and embryos were imaged using a fluorescence microscope.
Transgenic fish expressing EGFP in endothelial cells (Tg(flk1:EGFP)) were used to facilitate visualization of the developing vasculature. In control experiments embryos were treated with 0.1% DMSO (vehicle). At the time of analyses (24 hpf) developing vessels normally migrated from the lateral plate mesoderm to the midline and formed the vascular cord, subsequently forming the dorsal aorta and the posterior cardinal vein and followed by the formation of intersegmental vessels at designated branch points (FIG. 6b).

Chain of EYA3 (Q99504 127-573): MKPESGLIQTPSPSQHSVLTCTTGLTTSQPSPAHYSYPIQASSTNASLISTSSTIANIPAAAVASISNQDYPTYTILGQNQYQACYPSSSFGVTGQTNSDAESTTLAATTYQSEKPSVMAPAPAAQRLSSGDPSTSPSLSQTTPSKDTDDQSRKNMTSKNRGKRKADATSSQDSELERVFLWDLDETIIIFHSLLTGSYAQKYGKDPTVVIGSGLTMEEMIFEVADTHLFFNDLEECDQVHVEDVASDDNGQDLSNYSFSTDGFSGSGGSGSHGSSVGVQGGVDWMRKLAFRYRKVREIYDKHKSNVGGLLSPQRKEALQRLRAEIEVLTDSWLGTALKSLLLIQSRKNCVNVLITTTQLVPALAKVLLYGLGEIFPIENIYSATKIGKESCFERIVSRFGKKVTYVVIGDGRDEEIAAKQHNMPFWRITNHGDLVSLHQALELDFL

inhibitory effect in presence of detergent (EYA3; 0.01% Triton X-100) | mode of inhibition (substrate titration) (EYA3; increasing substrate concentration) | pIC50 (EYA3; pNPP substrate, full-length EYA3) | SMILES | cell migration (MCF10A(EYA2) cells) | cell viability (HUVECs) | sprout length and microvascular density of aortic rings (mouse aortic rings) | intersegmental vessels in zebrafish embryos [1]
retained | not a competitive inhibitor |  | CCc1oc2ccccc2c1C(=O)c1cc(Br)c(O)c(Br)c1 [Compound 1, Benzbromarone, reference compound] | significantly inhibited cell migration | reduced cell viability | shorter sprouts and significantly lower microvascular density | significant reduction of intersegmental vessels
 |  | 4.77 | CCc1oc2ccccc2c1C(=O)c1ccc(O)cc1 [Compound 1a] | significantly inhibited cell migration | reduced cell viability | shorter sprouts and significantly lower microvascular density | reduced the number of intersegmental vessels, but were less potent
